Among the data in ChEMBL document CHEMBL1155094, “Isosteric exchange of the acylsulfonamide moiety in Abbott's Bcl-XL protein interaction antagonist” (Bioorg Med Chem Lett, 2008) are Ki values, retold here.

Usually Ki stands for a dissociation constant, usually derived from enzyme kinetics or from competition with a known ligand. A low value points to a stronger hold on the target.

Structures are written as SMILES.

For this experiment, the target named is T1, Bcl-2-like protein 2 (Homo sapiens, UniProt Q92843).
T1 sequence (Q92843 whole entry): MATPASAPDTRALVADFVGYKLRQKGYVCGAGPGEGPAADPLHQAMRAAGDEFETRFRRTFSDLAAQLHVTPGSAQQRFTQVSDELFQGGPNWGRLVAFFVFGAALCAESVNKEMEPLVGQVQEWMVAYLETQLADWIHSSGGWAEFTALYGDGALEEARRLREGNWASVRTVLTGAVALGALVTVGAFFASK
As to the kind of experiment: Inhibition of 5-carboxyfluorescein-labeled Flu-Bak-BH3 peptide binding to Bcl-w by fluorescence polarization assay. On the technique in general: Polarisation of emitted light reports the rotation of a fluorescent probe.
In the case of `CN(CC(=O)Nc1ccc(N2CCSCC2)c([N+](=O)[O-])c1)C(=O)c1ccc(-c2ccccc2)cc1`, the inhibitory constant (Ki) came to 13 µM.
The result for `CN(CC(=O)Nc1ccc(N2CCCCC2)c([N+](=O)[O-])c1)C(=O)c1ccc(-c2ccccc2)cc1` reads 10.8 µM.
On to `CN(CC(=O)Nc1ccc(NC23CC4CC(CC(C4)C2)C3)c([N+](=O)[O-])c1)C(=O)c1ccc(-c2ccccc2)cc1`, for which the Ki came to 9.43 µM.
